Experimental data reported in the NIST ThermoML archive (doi:10.1016/j.jct.2015.10.001).
Numbers after ± are expanded uncertainties.

Assays:
[1] = 101.33 kPa, Liquid; for electrical conductivity: Direct current cell with electrodes; for mass density: Vibrating tube method
[2] = mn = molality of the nth substance listed, in mol/kg; conditions: 100 kPa, Liquid, Capillary tube (Ostwald / Ubbelohde) method, m2 = 0

CCCCn1cc[n+](C)c1.O=C([O-])c1ccccc1O [1-butyl-3-methylimidazolium salicylate]
viscosity ([1]; 293.15 K, Cone and plate viscometry): 1194.1 ± 80 mPa·s
electrical conductivity ([1]; 293.15 K): 0.0182 ± 0.0006 S/m
mass density ([1]; 293.15 K): 1152.27 ± 4.6 kg/m3
viscosity ([1]; 298.15 K, Cone and plate viscometry): 777.63 ± 46 mPa·s
electrical conductivity ([1]; 298.15 K): 0.0281 ± 0.0008 S/m
mass density ([1]; 298.15 K): 1149.05 ± 4.5 kg/m3
viscosity ([1]; 303.15 K, Cone and plate viscometry): 501.42 ± 26 mPa·s
electrical conductivity ([1]; 303.15 K): 0.0447 ± 0.0013 S/m
mass density ([1]; 303.15 K): 1145.65 ± 4.5 kg/m3
viscosity ([1]; 308.15 K, Cone and plate viscometry): 338.14 ± 15 mPa·s
electrical conductivity ([1]; 308.15 K): 0.0692 ± 0.0021 S/m
mass density ([1]; 308.15 K): 1142.22 ± 4.5 kg/m3
viscosity ([1]; 313.15 K, Cone and plate viscometry): 240 ± 9.8 mPa·s
electrical conductivity ([1]; 313.15 K): 0.0965 ± 0.0029 S/m
mass density ([1]; 313.15 K): 1138.76 ± 4.5 kg/m3
viscosity ([1]; 318.15 K, Cone and plate viscometry): 167.97 ± 6.1 mPa·s
electrical conductivity ([1]; 318.15 K): 0.156 ± 0.0047 S/m
viscosity ([1]; 323.15 K, Cone and plate viscometry): 127.06 ± 4.2 mPa·s
electrical conductivity ([1]; 323.15 K): 0.22 ± 0.0066 S/m

O [water]
viscosity ([1]; 293.15 K, Capillary tube (Ostwald / Ubbelohde) method): 1.003 ± 0.021 mPa·s
viscosity ([1]; 298.15 K, Capillary tube (Ostwald / Ubbelohde) method): 0.89 ± 0.019 mPa·s
viscosity ([1]; 303.15 K, Capillary tube (Ostwald / Ubbelohde) method): 0.797 ± 0.017 mPa·s
viscosity ([1]; 308.15 K, Capillary tube (Ostwald / Ubbelohde) method): 0.719 ± 0.015 mPa·s
viscosity ([1]; 313.15 K, Capillary tube (Ostwald / Ubbelohde) method): 0.653 ± 0.014 mPa·s

O [water] + CCCCn1cc[n+](C)c1.O=C([O-])c1ccccc1O
viscosity ([2]; 293.15 K): 1.003 ± 0.021 mPa·s
viscosity ([2]; 298.15 K): 0.89 ± 0.019 mPa·s
viscosity ([2]; 303.15 K): 0.797 ± 0.017 mPa·s
viscosity ([2]; 308.15 K): 0.719 ± 0.015 mPa·s
viscosity ([2]; 313.15 K): 0.653 ± 0.014 mPa·s
